Data on 6 compounds can be found in patent publication US11713344B2 (DONG-A ST CO., LTD., priority 2017, dated 2023).

The target of one test is Human GLP-1 receptors (Homo sapiens, UniProt P43220). The test is described as follows: GLP-1 receptor activation assay (CRE-luciferase reporter, CHO-K1). (In a reporter assay the amount or activity of a reporter protein is the signal.)
In a further test the target is Human glucagon receptors (Homo sapiens, UniProt P47871). Kind of test: Glucagon receptor activation assay (CRE-luciferase reporter, CHO-K1).
Human glucagon receptors, sequence (P47871 26-477): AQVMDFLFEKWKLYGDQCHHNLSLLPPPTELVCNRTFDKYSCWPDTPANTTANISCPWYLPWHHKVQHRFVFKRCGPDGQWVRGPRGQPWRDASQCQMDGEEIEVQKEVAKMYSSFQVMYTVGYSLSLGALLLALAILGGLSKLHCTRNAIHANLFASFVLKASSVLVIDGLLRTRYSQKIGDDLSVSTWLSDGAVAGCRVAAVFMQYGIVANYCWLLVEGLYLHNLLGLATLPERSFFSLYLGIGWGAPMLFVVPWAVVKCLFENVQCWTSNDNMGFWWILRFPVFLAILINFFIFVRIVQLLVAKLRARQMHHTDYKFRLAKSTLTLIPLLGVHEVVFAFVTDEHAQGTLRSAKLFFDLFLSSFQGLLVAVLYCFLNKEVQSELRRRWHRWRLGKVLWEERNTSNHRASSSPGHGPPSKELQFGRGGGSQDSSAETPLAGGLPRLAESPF

Human GLP-1 receptors, sequence (P43220 24-463): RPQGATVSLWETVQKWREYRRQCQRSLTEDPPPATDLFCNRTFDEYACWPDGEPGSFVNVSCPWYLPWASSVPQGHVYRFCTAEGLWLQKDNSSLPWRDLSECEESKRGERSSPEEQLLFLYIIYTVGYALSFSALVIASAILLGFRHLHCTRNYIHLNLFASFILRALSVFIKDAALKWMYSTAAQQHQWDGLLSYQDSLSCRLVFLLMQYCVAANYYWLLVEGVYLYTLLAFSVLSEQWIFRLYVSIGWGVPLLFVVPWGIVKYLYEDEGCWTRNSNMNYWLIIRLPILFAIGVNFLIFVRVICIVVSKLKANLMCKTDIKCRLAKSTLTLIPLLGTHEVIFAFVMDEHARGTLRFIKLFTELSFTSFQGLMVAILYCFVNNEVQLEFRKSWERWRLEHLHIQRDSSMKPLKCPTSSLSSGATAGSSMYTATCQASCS

On to `CCCCCCCCCCCCCCCCCC(=O)N[C@@H](CCC(=O)NCCOCCOCC(=O)NCCOCCOCC(=O)NCCCC[C@H](NC(=O)[C@H](CC(=O)O)NC(=O)[C@H](CO)NC(=O)[C@@H](NC(=O)[C@H](Cc1ccccc1)NC(=O)[C@@H](NC(=O)CNC(=O)[C@H](CCC(N)=O)NC(=O)C(C)(C)NC(=O)[C@@H](N)Cc1c[nH]cn1)[C@@H](C)O)[C@@H](C)O)C(=O)N[C@@H](CO)C(=O)N[C@@H](CCCCN)C(=O)N[C@@H](Cc1ccc(O)cc1)C(=O)N[C@@H](CC(C)C)C(=O)N[C@@H](CC(=O)O)C(=O)N[C@H]1CCC(=O)NCCCC[C@@H](C(=O)N[C@@H](CC(=O)O)C(=O)N[C@@H](Cc2ccccc2)C(=O)N[C@H](C(=O)N[C@@H](CCC(N)=O)C(=O)N[C@@H](Cc2c[nH]c3ccccc23)C(=O)N[C@@H](CC(C)C)C(=O)N[C@@H](CCSC)C(=O)N[C@@H](CC(N)=O)C(=O)N[C@H](C(=O)N[C@@H](CCCCN)C(=O)O)[C@@H](C)O)C(C)C)NC(=O)[C@H](C)NC(=O)[C@H](CCCNC(=N)N)NC(=O)[C@H](CCCNC(=N)N)NC1=O)C(=O)O` [Compound 14, H-HAibQGTFTSDZSKYLDERRAKDFVQWLMNTK-OH], for which the EC50 at Human GLP-1 receptors and at Human glucagon receptors was below 0.01 nM each time.
As to `CCCCCCCCCCCCCCCCCC(=O)N[C@@H](CCC(=O)NCCOCCOCC(=O)NCCOCCOCC(=O)NCCCC[C@H](NC(=O)[C@H](CC(=O)O)NC(=O)[C@H](CC(C)C)NC(=O)[C@H](Cc1ccc(O)cc1)NC(=O)[C@H](CCCCN)NC(=O)[C@H](CO)NC(=O)[C@H](Cc1ccc(O)cc1)NC(=O)[C@H](CC(=O)O)NC(=O)[C@H](CO)NC(=O)[C@@H](NC(=O)[C@H](Cc1ccccc1)NC(=O)[C@@H](NC(=O)CNC(=O)[C@H](CCC(N)=O)NC(=O)C(C)(C)NC(=O)[C@@H](N)Cc1c[nH]cn1)[C@@H](C)O)[C@@H](C)O)C(=O)N[C@@H](CCCNC(=N)N)C(=O)N[C@@H](CCCNC(=N)N)C(=O)N[C@@H](C)C(=O)N[C@@H](CCC(N)=O)C(=O)N[C@@H](CC(=O)O)C(=O)N[C@@H](Cc1ccccc1)C(=O)N[C@H](C(=O)N[C@@H](CCC(N)=O)C(=O)N[C@@H](Cc1c[nH]c2ccccc12)C(=O)N[C@@H](CC(C)C)C(=O)N[C@@H](CCSC)C(=O)N[C@@H](CC(N)=O)C(=O)N[C@H](C(=O)N[C@@H](CCCCN)C(=O)O)[C@@H](C)O)C(C)C)C(=O)O` [Compound 15, H-HAibQGTFTSDYSKYLDZRRAQDFVQWLMNTK-OH], the EC50 on Human GLP-1 receptors and on Human glucagon receptors was below 0.01 nM throughout.
On to `CCCCCCCCCCCCCCCCCC(=O)N[C@@H](CCC(=O)NCCOCCOCC(=O)NCCOCCOCC(=O)NCCCC[C@H](NC(=O)[C@H](C)NC(=O)[C@H](CCCNC(=N)N)NC(=O)[C@H](CCCNC(=N)N)NC(=O)C(C)(C)NC(=O)[C@H](CC(=O)O)NC(=O)[C@H](CC(C)C)NC(=O)[C@H](Cc1ccc(O)cc1)NC(=O)[C@H](CCCCN)NC(=O)[C@H](CO)NC(=O)[C@H](Cc1ccc(O)cc1)NC(=O)[C@H](CC(=O)O)NC(=O)[C@H](CO)NC(=O)[C@@H](NC(=O)[C@H](Cc1ccccc1)NC(=O)[C@@H](NC(=O)CNC(=O)[C@H](CCC(N)=O)NC(=O)C(C)(C)NC(=O)[C@@H](N)Cc1c[nH]cn1)[C@@H](C)O)[C@@H](C)O)C(=O)N[C@@H](CC(=O)O)C(=O)N[C@@H](Cc1ccccc1)C(=O)N[C@H](C(=O)N[C@@H](CCC(N)=O)C(=O)N[C@@H](Cc1c[nH]c2ccccc12)C(=O)N[C@@H](CC(C)C)C(=O)N[C@@H](CCSC)C(=O)N[C@@H](CC(N)=O)C(=O)N[C@H](C(=O)N[C@@H](CCCCN)C(=O)O)[C@@H](C)O)C(C)C)C(=O)O` [Compound 16], for which the EC50 at Human GLP-1 receptors and at Human glucagon receptors was below 0.01 nM throughout.
Consider `CCCCCCCCCCCCCCCCCC(=O)N[C@@H](CCC(=O)NCCOCCOCC(=O)NCCOCCOCC(=O)NCCCC[C@H](NC(=O)[C@H](CC(=O)O)NC(=O)[C@H](CO)NC(=O)[C@@H](NC(=O)[C@H](Cc1ccccc1)NC(=O)[C@@H](NC(=O)CNC(=O)[C@H](CCC(N)=O)NC(=O)C(C)(C)NC(=O)[C@@H](N)Cc1c[nH]cn1)[C@@H](C)O)[C@@H](C)O)C(=O)N[C@@H](CO)C(=O)N[C@@H](CCCCN)C(=O)N[C@@H](Cc1ccc(O)cc1)C(=O)N[C@@H](CC(C)C)C(=O)N[C@@H](CC(=O)O)C(=O)N[C@H]1CCC(=O)NCCCC[C@@H](C(=O)N[C@@H](CC(=O)O)C(=O)N[C@@H](Cc2ccccc2)C(=O)N[C@H](C(=O)N[C@@H](CCC(N)=O)C(=O)N[C@@H](Cc2c[nH]c3ccccc23)C(=O)N[C@@H](CC(C)C)C(=O)N[C@@H](CCSC)C(=O)N[C@@H](CC(N)=O)C(=O)N[C@H](C(=O)N[C@@H](CCCCN)C(N)=O)[C@@H](C)O)C(C)C)NC(=O)[C@H](C)NC(=O)[C@H](CCCNC(=N)N)NC(=O)[C@H](CCCNC(=N)N)NC1=O)C(=O)O` [Compound 19, H-HAibQGTFTSDZSKYLDERRAKDFVQWLMNTK-NH2], for which the EC50 on Human GLP-1 receptors and at Human glucagon receptors was below 0.01 nM each time.
Turning to `CCCCCCCCCCCCCCCCCC(=O)N[C@@H](CCC(=O)NCCOCCOCC(=O)NCCOCCOCC(=O)NCCOCCOCC(=O)NCCCC[C@H](NC(=O)[C@H](CC(=O)O)NC(=O)[C@H](CO)NC(=O)[C@@H](NC(=O)[C@H](Cc1ccccc1)NC(=O)[C@@H](NC(=O)CNC(=O)[C@H](CCC(N)=O)NC(=O)C(C)(C)NC(=O)[C@@H](N)Cc1c[nH]cn1)[C@@H](C)O)[C@@H](C)O)C(=O)N[C@@H](CO)C(=O)N[C@@H](CCCCN)C(=O)N[C@@H](Cc1ccc(O)cc1)C(=O)N[C@@H](CC(C)C)C(=O)N[C@@H](CC(=O)O)C(=O)N[C@H]1CCC(=O)NCCCC[C@@H](C(=O)N[C@@H](CC(=O)O)C(=O)N[C@@H](Cc2ccccc2)C(=O)N[C@H](C(=O)N[C@@H](CCC(N)=O)C(=O)N[C@@H](Cc2c[nH]c3ccccc23)C(=O)N[C@@H](CC(C)C)C(=O)N[C@@H](CCSC)C(=O)N[C@@H](CC(N)=O)C(=O)N[C@H](C(=O)N[C@@H](CCCCN)C(=O)O)[C@@H](C)O)C(C)C)NC(=O)[C@H](C)NC(=O)[C@H](CCCNC(=N)N)NC(=O)[C@H](CCCNC(=N)N)NC1=O)C(=O)O` [Compound 20, H-HAibQGTFTSDZSKYLDERRAKDFVQWLMNTK-OH], the concentration for a half-maximal effect (EC50) on Human GLP-1 receptors and at Human glucagon receptors was below 0.01 nM each time.
In the case of `CCCCCCCCCCCCCCCCCC(=O)N[C@@H](CCC(=O)NCCOCCOCC(=O)NCCOCCOCC(=O)NCCCC[C@H](NC(=O)[C@H](CC(=O)O)NC(=O)[C@H](CO)NC(=O)[C@@H](NC(=O)[C@H](Cc1ccccc1)NC(=O)[C@@H](NC(=O)CNC(=O)[C@H](CCC(N)=O)NC(=O)C(C)(C)NC(=O)[C@@H](N)Cc1c[nH]cn1)[C@@H](C)O)[C@@H](C)O)C(=O)N[C@@H](CO)C(=O)N[C@@H](CCCCN)C(=O)N[C@@H](Cc1ccc(O)cc1)C(=O)N[C@@H](CC(C)C)C(=O)N[C@@H](CC(=O)O)C(=O)N[C@H]1CSCc2cccc(c2)CSC[C@@H](C(=O)N[C@@H](CC(=O)O)C(=O)N[C@@H](Cc2ccccc2)C(=O)N[C@H](C(=O)N[C@@H](CCC(N)=O)C(=O)N[C@@H](Cc2c[nH]c3ccccc23)C(=O)N[C@@H](CC(C)C)C(=O)N[C@@H](CCSC)C(=O)N[C@@H](CC(N)=O)C(=O)N[C@H](C(=O)N[C@@H](CCCCN)C(=O)O)[C@@H](C)O)C(C)C)NC(=O)[C@H](C)NC(=O)[C@H](CCCNC(=N)N)NC(=O)[C@H](CCCNC(=N)N)NC1=O)C(=O)O` [Compound 22, H-HAibQGTFTSDZSKYLDCRRACDFVQWLMNTK-OH], the EC50 on Human GLP-1 receptors and on Human glucagon receptors was below 0.01 nM in each case.
